From patent publication US11453671B2, “Pyrazolopyrimidine inhibitors of JAK kinases and uses thereof” (Genentech, Inc., priority 2020, dated 2022)

Experiments:
[1] = Cell cytotoxicity assay A549 (CellTiter-Glo, 72 hours); type: cell-based; settings: human, A549 cells, Table 3; 72 hours, top concentration of 50 μM; read-out: Cytotox A549 EC50
Description: A549 (ATCC® CCL-185™), Jurkat clone E6-1 (ATCC® TIB-152™) and HEK-293T (ATCC® CRL-1573™) cells maintained at a sub-confluent density in T175 flasks were used. Cells in exponential growth phase were plated (450 cells in 45 μL of medium) in Greiner 384-well black/clear tissue culture treated plates (Greiner Catalog No. 781091). After dispensing cells, plates were allowed to equilibrate at room temperature for 30 minutes, after which time the cell plates were placed overnight in a 37° C. CO2 and humidity-controlled incubator. The following day, cells were treated with test agent diluted in 100% DMSO (0.5% final DMSO concentration on cells) with a 10-point titration and a top concentration of 50 μM. Cells and compounds were then incubated for 72 hours in a 37° C. CO2 and humidity-controlled incubator, after which time cell viability was measured by adding CellTiter-Glo® (Promega G7572) reagent to all wells. Plates were incubated at room temperature for 20 minutes and then the well luminescence was read on an EnVision plate reader (Perkin Elmer Life Sciences).

[2] = test system: JAK1: IL-13-stimulated STAT6 phosphorylation in BEAS-2B cells; assay: P-STAT6 BEAS-2B+IL-13 Cell Assay; type: cell-based, human; settings: Homo sapiens, BEAS-2B, IL-13 stimulation, read-out: Cellular JAK1 PSTAT6 BEAS2B + IL13 IC50
Procedure, shortened: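 BEAS-2B cells in BEGM preincubated 1 h at 37 °C with 10-point, 1:2 compound dilutions, then stimulated 15 min with IL-13 (250 ng/mL stock). Lysate pSTAT6 (Tyr641) captured on total-STAT6 antibody and read by MSD electrochemiluminescence; IC50 from four-parameter logistic fit.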

[3] = Mouse lung tissue binding (equilibrium dialysis, RED); type: in vitro ADME; settings: for Mouse LTB %: mouse lung tissue binding, % bound (Table 3); for Lung tissue binding, %: Table 5, sulfone-sulfide analog pairs
Description: Mouse lung tissue binding. A high bound fraction or percentage of JAK1/JAK2 inhibitors to lung tissue may be undesirable since it can reduce the amount of free drug available to inhibit JAK1 or JAK2.
(a) Tissue binding experiments were performed in triplicate (n=3) using a Single-Use RED Plate by following the standard protocol. Initially, individual drugs were spiked to tissue homogenates (pH 7.4) to achieve a final concentration of 1 μM, and then 300 μL of drug-tissue homogenate mixtures were transferred to the donor wells of the RED plate which was pre-loaded with 500 μL phosphate buffer saline (133 mM) on the receiver wells. The RED plate was sealed with a gas permeable membrane and placed in a shaking incubator (450 rpm, VWR Symphony™) for 6 hr at 37° C. with 5% CO2. At the end of incubation, aliquots of 30 μL samples were taken out of the RED device and matrix equalized with an equal volume of tissue homogenates or buffer, and resulting samples were then immediately quenched with ice cold acetonitrile (sample:acetonitrile 1:4) containing either propranolol or labetalol as an internal standard. After shaking for 15 min at 500 rpm on a Thermo Scientific Compact Digital MicroPlate Shaker, all samples were then subjected to centrifugation at 3700 rpm for 15 min (Beckman Coulter Allegra X 12R) to remove plasma protein. Subsequently, supernatants were collected and then diluted with an equal volume of water prior to LC-MS/MS analysis.
(b) In an alternate procedure, the extent of lung tissue binding of test compound to mouse lung homogenate may also be determined by equilibrium dialysis using Pierce RED (rapid equilibrium dialysis) devices (Fisher Scientific 89811 & 89809). A 10 mM solution of compound in DMSO was prepared and diluted to 1 mM with DMSO. An aliquot of this 1 mM (4 μL) was added into lung homogenate (dilution factor of 1:9, lung tissue:potassium phosphate buffer (0.05 M, pH 7.4)) to give a final compound incubation concentration of 5 μM with solvent accounting for 0.5% (v/v) of the final incubation volume.
For each assay, the percentage lung tissue bound was determined in triplicate. Lung homogenate (200 μL) was loaded into one side of a RED device insert, in triplicate, and 350 μL of potassium phosphate buffer was loaded into the other side. The RED devices were sealed and incubated for 4 hours at ca. 37° C. on an orbital shaker (˜150 rpm).
Following incubation, an aliquot of lung homogenate (8 μL) and an aliquot of dialysate (72 μL) were matrix matched (lung homogenate with 72 μL phosphate buffer, dialysate with 8 μL lung homogenate) ahead of analysis. Protein was precipitated from the samples with the addition of 160 μL of acetonitrile containing internal standard. The same matrix matching and protein precipitation procedure was performed on lung homogenate aliquots sampled at the start of the experiment (t=0 min samples), for the assessment of the mass balance. The quenched samples were centrifuged (4000 rpm, 30 min, 4° C.) and the resultant supernatant diluted with water (3:1 (v/v), supernatant: water) and the samples analysed for parent compound by liquid chromatography mass spectrometry assay.
The unbound fraction (fu) in lung homogenate was determined from the ratio of the dialysate to homogenate peak area, corrected to take into account the lung homogenate dilution (D) to enable an estimate of whole lung tissue binding using the following equations: Undiluted fu=(1/D)/[((1/Apparent fu)−1)+(1/D)] Corrected fraction bound (%)=(1-undiluted fu)*100

Compound | EC50 at 72 h [1] [nM] | IC50 [2] [nM] | Mouse LTB % [3] [%] | Lung tissue binding, % [3] [%]
Cn1cc(NC(=O)c2cnn3cccnc23)c(-c2cc(S(=O)(=O)C3CC3)ccc2OC(F)F)n1 [Example 22, N-[3-[5-cyclopropylsulfonyl-2-(difluoromethoxy)phenyl]-1-methyl-pyrazol-4-yl]pyrazolo[1,5-a]pyrimidine-3-carboxamide] | ≥ 50000 | 23 | 88.7 | –
CNS(=O)(=O)c1ccc(OC(F)F)c(-c2nn(C)cc2NC(=O)c2cnn3cccnc23)c1 [Example 26, N-[3-[2-(difluoromethoxy)-5-(methylsulfamoyl)phenyl]-1-methyl-pyrazol-4-yl]pyrazolo[1,5-a]pyrimidine-3-carboxamide] | 11000 | 11 | 86.9 | –
CS(=O)(=O)c1ccc(OC(F)F)c(-c2nn(CC#N)cc2NC(=O)c2cnn3cccnc23)c1 [Example 28, N-[1-(cyanomethyl)-3-[2-(difluoromethoxy)-5-methylsulfonyl-phenyl]pyrazol-4-yl]pyrazolo[1,5-a]pyrimidine-3-carboxamide] | ≥ 50000 | 9.5 | 70.8 | 70.8
CN(C)S(=O)(=O)c1ccc(OC(F)F)c(-c2nn(C)cc2NC(=O)c2cnn3cccnc23)c1 [Example 30, N-[3-[2-(difluoromethoxy)-5-(dimethylsulfamoyl)phenyl]-1-methyl-pyrazol-4-yl]pyrazolo[1,5-a]pyrimidine-3-carboxamide] | 6100 | 11 | 83.1 | –
Cn1cc(S(=O)(=O)c2ccc(OC(F)F)c(-c3nn(C)cc3NC(=O)c3cnn4cccnc34)c2)cn1 [Example 35, N-[3-[2-(difluoromethoxy)-5-(1-methylpyrazol-4-yl)sulfonyl-phenyl]-1-methyl-pyrazol-4-yl]pyrazolo[1,5-a]pyrimidine-3-carboxamide] | 22000 | 24 | 86.2 | 86.2
Cn1cc(NC(=O)c2cnn3cccnc23)c(-c2cc(S(=O)(=O)c3ccccc3)ccc2OC(F)F)n1 [Example 40, N-[3-[5-(benzenesulfonyl)-2-(difluoromethoxy)phenyl]-1-methyl-pyrazol-4-yl]pyrazolo[1,5-a]pyrimidine-3-carboxamide] | ≥ 50000 | 24 | 95.6 | –
Cn1cc(NC(=O)c2cnn3cccnc23)c(-c2cc(S(=O)(=O)c3cn[nH]c3)ccc2OC(F)F)n1 [Example 41, N-[3-[2-(difluoromethoxy)-5-(1H-pyrazol-4-ylsulfonyl)phenyl]-1-methyl-pyrazol-4-yl]pyrazolo[1,5-a]pyrimidine-3-carboxamide] | ≥ 50000 | 37 | 91.2 | –
Cn1cc(NC(=O)c2cnn3cccnc23)c(-c2cc(S(=O)(=O)c3ccn(C)c(=O)c3)ccc2OC(F)F)n1 [Example 44, N-[3-[2-(difluoromethoxy)-5-[(1-methyl-2-oxo-4-pyridyl)sulfonyl]phenyl]-1-methyl-pyrazol-4-yl]pyrazolo[1,5-a]pyrimidine-3-carboxamide] | 24000 | 29 | 86.5 | –
N#CCn1cc(NC(=O)c2cnn3cccnc23)c(-c2cc(S(=O)(=O)C3CC3)ccc2OC(F)F)n1 [Example 45, N-[1-(cyanomethyl)-3-[5-cyclopropylsulfonyl-2-(difluoromethoxy)phenyl]pyrazol-4-yl]pyrazolo[1,5-a]pyrimidine-3-carboxamide] | ≥ 50000 | 35 | 87.9 | –
Cn1cc(NC(=O)c2cnn3cccnc23)c(-c2cc3c(cc2OC(F)F)NCCS3(=O)=O)n1 [Example 46, N-[3-[6-(difluoromethoxy)-1,1-dioxo-3,4-dihydro-2H-1lambda6,4-benzothiazin-7-yl]-1-methyl-pyrazol-4-yl]pyrazolo[1,5-a]pyrimidine-3-carboxamide] | ≥ 50000 | 49 | 89.9 | –
CN(C)CCn1cc(S(=O)(=O)c2ccc(OC(F)F)c(-c3nn(C)cc3NC(=O)c3cnn4cccnc34)c2)cn1 [Example 49, N-[3-[2-(difluoromethoxy)-5-[1-[2-(dimethylamino)ethyl]pyrazol-4-yl]sulfonyl-phenyl]-1-methyl-pyrazol-4-yl]pyrazolo[1,5-a]pyrimidine-3-carboxamide] | 33000 | 28 | 84.4 | –
Cn1cc(NC(=O)c2cnn3cccnc23)c(-c2cc(S(=O)(=O)CCCO)ccc2OC(F)F)n1 [Example 63, N-[3-[2-(difluoromethoxy)-5-(3-hydroxypropylsulfonyl)phenyl]-1-methyl-pyrazol-4-yl]pyrazolo[1,5-a]pyrimidine-3-carboxamide] | ≥ 50000 | 71 | 80.5 | –
CN(CCO)S(=O)(=O)c1ccc(OC(F)F)c(-c2nn(C)cc2NC(=O)c2cnn3cccnc23)c1 [Example 73, N-(3-(2-(difluoromethoxy)-5-(N-(2-hydroxyethyl)-N-methylsulfamoyl)phenyl)-1-methyl-1H-pyrazol-4-yl)pyrazolo[1,5-a]pyrimidine-3-carboxamide] | ≥ 50000 | 53 | 81.8 | –
